Experimental findings from patent US20220389000A1, “PESTICIDALLY ACTIVE CYCLIC AMINE COMPOUNDS” (SYNGENTA CROP PROTECTION AG, priority 2019, published 2022) are described below.

Structures are written as SMILES. Bounds are passed on as bounds.

Assay [1] deals with Tetranychus urticae (Two-Spotted Spider Mite). Briefly: Example B4: Tetranychus urticae (two-spotted spider mite), feeding/contact activity, sprayed bean leaf discs. The format is in vivo. The following applies: foliar, 192 h, application rate 200 ppm, mixed population (mobile stages) on sprayed bean leaf discs, 8 days after infestation. The procedure:
Example B4: Tetranychus urticae (Two-Spotted Spider Mite): Feeding/Contact Activity
Bean leaf discs on agar in 24-well microtiter plates were sprayed with aqueous test solutions prepared from 10'000 ppm DMSO stock solutions. After drying the leaf discs were infested with a mite population of mixed ages. The samples were assessed for mortality on mixed population (mobile stages) 8 days after infestation.

For assay [2], the system named is Plutella xylostella (Diamond Back Moth). Briefly: Example B3: Plutella xylostella (diamond back moth), treated artificial diet, eggs. The format is in vivo. To be noted: 192 h, application rate 200 ppm, eggs on treated artificial diet, 8 days after infestation, vs untreated, read-out: effect in at least one of the two categories (mortality or growth inhibition). How it is done: Example B3: Plutella xylostella (Diamond Back Moth)
24-well microtiter plates with artificial diet were treated with aqueous test solutions prepared from 10'000 ppm DMSO stock solutions by pipetting. After drying, Plutella eggs were pipetted through a plastic stencil onto a gel blotting paper and the plate was closed with it. The samples were assessed for mortality and growth inhibition in comparison to untreated samples 8 days after infestation.
The following compounds gave an effect of at least 80% in at least one of the two categories (mortality or growth inhibition) at an application rate of 200 ppm: […]

`Cc1nc(C2CCN(C(=O)c3cc(C#N)c(OCc4ccc(C(F)(F)F)cc4)nc3C(F)(F)F)CC2)no1` [P1.1, 5-[4-(5-Methyl-1,2,4-oxadiazol-3-yl)piperidine-1-carbonyl]-6-(trifluoromethyl)-2-[[4-(trifluoromethyl)phenyl]methoxy]pyridine-3-carbonitrile] returned a mortality at 200 ppm in assay [1] not below 80%.
For the compound `Cc1nc(C2CCN(C(=O)c3cc(C#N)c(OCc4ccc(C(F)(F)F)cc4)nc3C)CC2)no1` [P1.43, 6-Methyl-5-[4-(5-methyl-1,2,4-oxadiazol-3-yl)piperidine-1-carbonyl]-2-[[4-(trifluoromethyl)phenyl]methoxy]pyridine-3-carbonitrile], the mortality at 200 ppm in assay [1] is not below 80%.
The same measure, in the same setting: to `Cc1nc(C2CCN(C(=O)c3cc(C#N)c(OCc4ccc(C(F)(F)F)cc4)nc3C(F)F)CC2)no1` [P1.48, 6-(Difluoromethyl)-5-[4-(5-methyl-1,2,4-oxadiazol-3-yl)piperidine-1-carbonyl]-2-[[4-(trifluoromethyl)phenyl]methoxy]pyridine-3-carbonitrile] belongs not below 80%.
`N#Cc1cc(C(=O)N2CCN(c3ncc(Cl)cc3Cl)CC2)c(C(F)(F)F)nc1OCc1ccc(C(F)(F)F)cc1` [P2.1, 5-[4-(3,5-dichloro-2-pyridyl)piperazine-1-carbonyl]-6-(trifluoromethyl)-2-[[4-(trifluoromethyl)phenyl]methoxy]pyridine-3-carbonitrile]: the effect (mortality or growth inhibition) at 200 ppm in assay [2] was not below 80%. For the same compound, the mortality at 200 ppm in assay [1] is not below 80%.
`CC[S+]([O-])CC1CCN(C(=O)c2cc(C#N)c(OCc3ccc(C(F)(F)F)cc3)nc2C(F)(F)F)CC1` (stereo not drawn) [P3.4, 5-[4-(Ethylsulfinylmethyl)piperidine-1-carbonyl]-6-(trifluoromethyl)-2-[[4-(trifluoromethyl)phenyl]methoxy]pyridine-3-carbonitrile] registered a mortality at 200 ppm in assay [1] not below 80%.
Turning to `Cc1nc(C2CCN(C(=O)c3cc(C#N)c(OCC4CC4(Cl)Cl)nc3C(F)(F)F)CC2)no1` (stereo not drawn) [P4.1, 2-[(2,2-Dichlorocyclopropyl)methoxy]-5-[4-(5-methyl-1,2,4-oxadiazol-3-yl)piperidine-1-carbonyl]-6-(trifluoromethyl)pyridine-3-carbonitrile], in assay [2], the effect (mortality or growth inhibition) at 200 ppm was not below 80%. In assay [1], this compound returned a mortality at 200 ppm not below 80%.
Compound `Cc1nc(C2CCN(C(=O)c3cc(C(N)=S)c(OCc4ccc(C(F)(F)F)cc4)nc3C(F)(F)F)CC2)no1` [P6.1, 5-[4-(5-Methyl-1,2,4-oxadiazol-3-yl)piperidine-1-carbonyl]-6-(trifluoromethyl)-2-[[4-(trifluoromethyl)phenyl]methoxy]pyridine-3-carbothioamide] yielded a mortality at 200 ppm in assay [1] not below 80%.

As a reminder, the mortality is the share of the test organisms that died. A higher mortality goes with fewer survivors.
